Among the data in PubChem BioAssay AID330 (DTP/NCI, 2004) are T/C values, retold here.

The assay relates to P388 leukemia ip, CD2F1 mice, survival T/C. Kind of assay: NCI In Vivo Anticancer Drug Screen. Data for tumor model P388 Leukemia (intraperitoneal) in CD2F1 (CDF1) mice. As to conditions: endpoint: median survival time, higher = longer survival. In outline: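 Mice carrying the transplanted tumor received test compound or vehicle. Survival was recorded in each group, and the value is the treated-group measurement divided by that of the vehicle-treated control group.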

[1] abbreviates: dose: 50.0 mg/kg/injection, schedule: Q01DX009 (ip), vehicle: saline.
[2] abbreviates: dose: 100.0 mg/kg/injection, schedule: Q04DX003 (ip), vehicle: saline with Tween-80.
The mark [3] stands for this setting: dose: 200.0 mg/kg/injection, schedule: Q04DX003 (ip), vehicle: saline with Tween-80.
The mark [4] stands for this setting: dose: 400.0 mg/kg/injection, schedule: Q04DX003 (ip), vehicle: saline with Tween-80.
[5] abbreviates: dose: 100.0 mg/kg/injection, schedule: Q01DX009 (ip), vehicle: saline with Tween-80.
Where [6] appears, read: dose: 200.0 mg/kg/injection, schedule: Q01DX009 (ip), vehicle: saline with Tween-80.
Setting [7] is: dose: 50.0 mg/kg/injection, schedule: Q01DX009 (ip), vehicle: saline with Tween-80.
Where [8] appears, read: dose: 25.0 mg/kg/injection, schedule: Q01DX005 (ip), vehicle: saline with Tween-80.
Setting [9] is: dose: 50.0 mg/kg/injection, schedule: Q01DX005 (ip), vehicle: saline with Tween-80.
Where [10] appears, read: dose: 100.0 mg/kg/injection, schedule: Q01DX005 (ip), vehicle: saline with Tween-80.
[11] abbreviates: dose: 50.0 mg/kg/injection, schedule: Q01DX005 (ip), vehicle: Klucel (hydroxypropylcellulose) (HPC).
The mark [12] stands for this setting: dose: 100.0 mg/kg/injection, schedule: Q01DX005 (ip), vehicle: Klucel (hydroxypropylcellulose) (HPC).
Where [13] appears, read: dose: 200.0 mg/kg/injection, schedule: Q01DX005 (ip), vehicle: Klucel (hydroxypropylcellulose) (HPC).
[14] abbreviates: dose: 100.0 mg/kg/injection, schedule: Q04DX002 (ip), vehicle: saline.
The mark [15] stands for this setting: dose: 200.0 mg/kg/injection, schedule: Q04DX002 (ip), vehicle: saline.
[16] abbreviates: dose: 50.0 mg/kg/injection, schedule: Q01DX009 (ip), vehicle: Klucel (hydroxypropylcellulose) (HPC).
The mark [17] stands for this setting: dose: 100.0 mg/kg/injection, schedule: Q01DX009 (ip), vehicle: Klucel (hydroxypropylcellulose) (HPC).

Several values for one entry are separate records, joined by “and”; a condition that tells them apart may be missing. Identical values can stand only once. Toxic doses and inconclusive results are not listed.

Consider `[O-][n+]1ccc(C2CO2)cc1` (centres undefined), for which the T/C is 93 % of control under setting [1]; 101 % of control (dose: 100.0 mg/kg/injection, schedule: Q01DX009 (ip), vehicle: saline); 98 % of control (dose: 200.0 mg/kg/injection, schedule: Q01DX009 (ip), vehicle: saline).
As for `N/C(=N\O)c1nc2c(N)nc(-c3ccccc3)nc2nc1N`, the T/C was 109 % of control (dose: 37.5 mg/kg/injection, schedule: Q01DX009 (ip), vehicle: saline with Tween-80); 95 % of control (dose: 75.0 mg/kg/injection, schedule: Q01DX009 (ip), vehicle: saline with Tween-80); 97 % of control (dose: 150.0 mg/kg/injection, schedule: Q01DX009 (ip), vehicle: saline with Tween-80).
Consider `C[C@H]1[C@H](O)[C@H]2[C@@H](CCC3=CC(=O)CC[C@@]32C)[C@@H]2CC[C@H](O)[C@@]12C`, for which the T/C reads like this: under setting [2], 104 % of control; under setting [3], 100 % of control; under setting [4], 100 % of control.
As to `CCOC(=O)C1(C)CCCC1N` (centres undefined), the T/C (dose: 60.0 mg/kg/injection, schedule: Q01DX005 (ip), vehicle: saline) was 92 % of control and the T/C (dose: 120.0 mg/kg/injection, schedule: Q01DX005 (ip), vehicle: saline) is 90 % of control.
Take `COc1cc2c(cc1OC)CN(C)C(C)C2` (centres undefined): the T/C reads like this: (dose: 12.5 mg/kg/injection, schedule: Q01DX005 (ip), vehicle: saline) 101 % of control; (dose: 25.0 mg/kg/injection, schedule: Q01DX005 (ip), vehicle: saline) 106 % of control; (dose: 50.0 mg/kg/injection, schedule: Q01DX005 (ip), vehicle: saline) 109 % of control and 97 % of control.
Take `O=C(Nc1ccc(Br)cc1)c1ccccc1`: the T/C is 95 % of control under setting [5]; 90 % of control under setting [6]; 100 % of control (dose: 400.0 mg/kg/injection, schedule: Q01DX009 (ip), vehicle: saline with Tween-80).
Regarding `CCc1nc(-c2ccccc2)c(-c2ccccc2)[nH]1`, the T/C was 90 % of control under setting [2], 90 % of control under setting [3] and 95 % of control under setting [4].
Regarding `COc1nc(N)c2c3c([nH]c2c1C#N)C(C)(C)c1ccccc1N3C`, the T/C was 96 % of control under setting [7], 100 % of control under setting [5] and 94 % of control under setting [6].
Turning to `CC(=O)N1C=Cc2ccccc2C1(Br)C1(Br)c2ccccc2C=CN1C(C)=O` (centres undefined), the T/C runs as follows: under setting [8], 97 % of control; under setting [9], 99 % of control; under setting [10], 89 % of control.
For `CCCCCCC(=O)/C=C/c1ccc(OC)cc1OC`, the T/C under setting [7] was 94 % of control, the T/C under setting [5] was 91 % of control and the T/C under setting [6] is 91 % of control.
Take `Cn1c(Cl)c(/C=N\Nc2ccc([N+](=O)[O-])cc2[N+](=O)[O-])c2ccccc21`: the T/C (dose: 100.0 mg/kg/injection, schedule: Q01DX001 (ip), vehicle: saline with Tween-80) was 92 % of control; the T/C (dose: 200.0 mg/kg/injection, schedule: Q01DX001 (ip), vehicle: saline with Tween-80) is 93 % of control; the T/C (dose: 400.0 mg/kg/injection, schedule: Q01DX001 (ip), vehicle: saline with Tween-80) was 91 % of control.
As for `CCc1cc2c(=O)[nH]c(-c3cccnc3)nc2s1`, the T/C is 106 % of control under setting [11], 100 % of control under setting [12] and 88 % of control under setting [13].
As to `OC(c1cc2cc(Cl)c(Cl)cc2c2cc(C(F)(F)F)ccc12)C1CCCCN1` (centres undefined), the T/C is, setting by setting: (dose: 6.25 mg/kg/injection, schedule: Q01DX009 (ip), vehicle: saline with Tween-80) 109 % of control; (dose: 12.5 mg/kg/injection, schedule: Q01DX009 (ip), vehicle: saline with Tween-80) 102 % of control.
For `COCNC(=S)c1ccc(C(N)=O)nc1C(=O)NC(C)(C)C`, the T/C was 98 % of control under setting [9]; 100 % of control under setting [10]; 99 % of control (dose: 200.0 mg/kg/injection, schedule: Q01DX005 (ip), vehicle: saline with Tween-80).
For `N=C(N)SCC[n+]1cccc2cccc(O)c21`, the T/C runs as follows: under setting [14], 98 % of control; under setting [15], 100 % of control.
On to `CN(N=O)C(=O)Nc1cc(=O)[nH]c(SCc2ccccc2)n1`, for which the T/C is 104 % of control (dose: 12.5 mg/kg/injection, schedule: Q01DX005 (ip), vehicle: Klucel (hydroxypropylcellulose) (HPC)); 114 % of control (dose: 25.0 mg/kg/injection, schedule: Q01DX005 (ip), vehicle: Klucel (hydroxypropylcellulose) (HPC)); 124 % of control under setting [11]; 160 % of control under setting [12].
As to `COc1cc2oc3c(c(=O)c2c(O)c1/C=C/C(C)C)C(C=C(C)C)Oc1cc(O)ccc1-3` (centres undefined), the T/C by setting is: under setting [16], 124 % of control; under setting [17], 115 % of control; (dose: 200.0 mg/kg/injection, schedule: Q01DX009 (ip), vehicle: Klucel (hydroxypropylcellulose) (HPC)) 114 % of control.
On to `CC1(CCC(=O)c2cc3c(cc2Br)OCO3)OCCO1`, for which the T/C under setting [8] was 99 % of control, the T/C under setting [9] is 99 % of control and the T/C under setting [10] was 100 % of control.
On to `COc1cc(C[C@H](CO)[C@H](CO)Cc2ccc3c(c2)OCO3)cc(OC)c1OC`, for which the T/C is 100 % of control (dose: 12.5 mg/kg/injection, schedule: Q04DX002 (ip), vehicle: acetone); 102 % of control (dose: 25.0 mg/kg/injection, schedule: Q04DX002 (ip), vehicle: acetone); 103 % of control (dose: 50.0 mg/kg/injection, schedule: Q04DX002 (ip), vehicle: acetone).
As to `O=C1SC(c2ccccc2)=S=C1c1ccccc1`, the T/C under setting [7] is 104 % of control, the T/C under setting [5] was 104 % of control and the T/C under setting [6] was 124 % of control.
Turning to `O=C(NC1CCC1)OCc1c(COC(=O)NC2CCC2)c(-c2ccc(Cl)c(Cl)c2)n2c1CCC2`, the T/C is 117 % of control (dose: 3.13 mg/kg/injection, schedule: Q01DX009 (ip), vehicle: distilled water + Tween-80); 155 % of control (dose: 12.5 mg/kg/injection, schedule: Q01DX009 (ip), vehicle: distilled water + Tween-80); 173 % of control and 194 % of control (dose: 25.0 mg/kg/injection, schedule: Q01DX009 (ip), vehicle: distilled water + Tween-80).
Regarding `CN(C)C(=S)S/C=C\C(=O)O`, the T/C (dose: 6.25 mg/kg/injection, schedule: Q04DX003 (ip), vehicle: Klucel (hydroxypropylcellulose) (HPC)) is 97 % of control; the T/C (dose: 12.5 mg/kg/injection, schedule: Q04DX003 (ip), vehicle: Klucel (hydroxypropylcellulose) (HPC)) was 97 % of control; the T/C (dose: 25.0 mg/kg/injection, schedule: Q04DX003 (ip), vehicle: Klucel (hydroxypropylcellulose) (HPC)) was 100 % of control; the T/C (dose: 400.0 mg/kg/injection, schedule: Q04DX003 (ip), vehicle: Klucel (hydroxypropylcellulose) (HPC)) was 88 % of control.
Turning to `CC(C(=O)O)N1C(=O)CNC1=O` (centres undefined), the T/C reads like this: under setting [11], 93 % of control; under setting [12], 91 % of control; under setting [13], 100 % of control.
On to `CC(=O)OCC1=CC2OC(=O)C3=COC(OC4OC(CO)C(O)C(O)C4O)C1C32` (centres undefined), for which the T/C is, setting by setting: (dose: 12.5 mg/kg/injection, schedule: Q01DX009 (ip), vehicle: saline) 93 % of control; (dose: 25.0 mg/kg/injection, schedule: Q01DX009 (ip), vehicle: Klucel (hydroxypropylcellulose) (HPC)) 88 % of control; (dose: 25.0 mg/kg/injection, schedule: Q01DX009 (ip), vehicle: saline) 98 % of control; under setting [16], 88 % of control; under setting [1], 98 % of control; (dose: 50.0 mg/kg/injection, schedule: Q04DX002 (ip), vehicle: saline) 107 % of control. The T/C is, setting by setting: under setting [17], 89 % of control; under setting [14], 101 % of control; under setting [15], 99 % of control.
`N#CCC1CCCC1=O` (centres undefined): the T/C reads like this: under setting [7], 103 % of control; under setting [5], 99 % of control.
